# Values of other authors in patent US20230104323A1, “FORMULATIONS OF POLYBASIC DRUGS TO REDUCE MULTI-ORGAN TOXICITY” (priority 2019, published 2023).
# Test system: healthy subjects
# Details: plazomicin injection
structure (smiles),measurement,value
CN[C@@H]1[C@@H](O)[C@@H](O[C@@H]2[C@@H](O)[C@H](O[C@H]3OC(CNCCO)=CC[C@H]3N)[C@@H](N)C[C@H]2NC(=O)[C@@H](O)CCN)OC[C@]1(C)O [plazomicin],Nephrotoxicity and ototoxicity in humans,no nephrotoxicity and ototoxicity
